# From paper PMC10663540, “Structure-based discovery of dual pathway inhibitors for SARS-CoV-2 entry” (Nature Communications, 2023)
# “And” between values parts separate entries of the source, which are not always exact repeats. Equal entries are not always repeated. Where two headings read alike, the source gives them in different places.
# Experiments:
# TMPRSS2 = TMPRSS2 (Homo sapiens, UniProt O15393)
# human CTSL = target: T1, human CTSL (Homo sapiens, UniProt P07711); test: FRET enzymatic inhibition assay of CTSL (IC50 measurement); format: biochemical
# T1 construct: made in house
# Calu-3 cells = conditions: rep1-rep3
# human CTSB = target: T2, human CTSB (Homo sapiens, UniProt P07858); test: biochemical
# T2 construct: […]; made in house
# in vitro = conditions: human
# [1] = 0.0762939 nM, rep1-rep4, 7.62939e-05 µM
# [2] = 1.2207 nM, rep1-rep4, 0.0012207 µM
# [3] = 156.25 nM, rep1-rep4, 0.15625 µM
# [4] = substrate Cbz-Phe-Arg-AMC, pH 5.5, mean ± SD, four replicates
# T1 sequence (P07711 114-333): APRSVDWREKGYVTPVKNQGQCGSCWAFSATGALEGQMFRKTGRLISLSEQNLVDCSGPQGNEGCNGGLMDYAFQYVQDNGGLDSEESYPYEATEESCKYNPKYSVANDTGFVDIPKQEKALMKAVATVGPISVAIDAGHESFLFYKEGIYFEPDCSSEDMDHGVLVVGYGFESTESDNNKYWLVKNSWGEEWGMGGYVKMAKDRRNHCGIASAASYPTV
# Chain of TMPRSS2 (O15393 with tags, fused parts or gaps): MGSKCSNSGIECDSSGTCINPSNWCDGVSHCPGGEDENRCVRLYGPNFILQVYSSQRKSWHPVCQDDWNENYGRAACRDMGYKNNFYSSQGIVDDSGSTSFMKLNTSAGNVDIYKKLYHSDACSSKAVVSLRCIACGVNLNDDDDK
# Chain of TMPRSS2 (O15393 256-492): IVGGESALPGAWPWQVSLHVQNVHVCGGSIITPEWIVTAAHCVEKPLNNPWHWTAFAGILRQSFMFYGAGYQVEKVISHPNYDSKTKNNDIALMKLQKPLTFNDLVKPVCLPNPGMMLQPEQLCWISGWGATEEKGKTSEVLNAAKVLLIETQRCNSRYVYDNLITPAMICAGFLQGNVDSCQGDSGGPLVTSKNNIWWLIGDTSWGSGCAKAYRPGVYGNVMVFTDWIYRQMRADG
compound,measurement,setting,value
O=C(O)CN(CCN(CC(=O)O)CC(=O)O)CC(=O)O [EDTA],Tm of TMPRSS2,TMPRSS2,51.7 °C and 51.6 °C
CCOC(=O)C1OC1C(=O)NC(CC(C)C)C(=O)NCCC(C)C (centres unmarked) [E64d],Inhibition: CTSL,human CTSL; [1],2.24% and 3.63% and 1.98% and 0.98%
same,Inhibition: CTSL,"human CTSL; 0.152588 nM, rep1-rep4, 0.000152588 µM",2.65% and 3.08% and 2.24% and -1.44%
same,Inhibition: CTSL,"human CTSL; 0.610352 nM, rep1-rep4, 0.000610352 µM",0.22% and 3.41%
same,Inhibition: CTSL,human CTSL; [2],6.37% and 4.18%
same,Inhibition: CTSL,"human CTSL; 2.44141 nM, rep1-rep4, 0.00244141 µM",4.98% and 7.04% and 0.43% and 3.83%
same,Inhibition: CTSL,"human CTSL; 4.88281 nM, rep1-rep4, 0.00488281 µM",0.11% and 3.42% and 5.91% and 2.54%
same,Inhibition: CTSL,"human CTSL; 9.76562 nM, rep1-rep4, 0.00976562 µM",8.11% and 8.13% and 3.91% and 9.27%
same,inhibition at 0.0195312 µM,"human CTSL; 19.5312 nM, rep1-rep4",10.1%
same,Inhibition: CTSL,"human CTSL; 19.5312 nM, rep1-rep4, 0.0195312 µM",17.79% and 9.24% and 15.72%
same,inhibition at 0.0390625 µM,"human CTSL; 39.0625 nM, rep1-rep4",26.6%
same,Inhibition: CTSL,"human CTSL; 39.0625 nM, rep1-rep4, 0.0390625 µM",23.44% and 25.85% and 26.69%
same,inhibition at 0.078125 µM,"human CTSL; 78.125 nM, rep1-rep4",45.2%
same,Inhibition: CTSL,"human CTSL; 78.125 nM, rep1-rep4, 0.078125 µM",44.64% and 44.43% and 46.07%
same,inhibition at 0.15625 µM,"human CTSL; 156.25 nM, rep1-rep4",72.7%
same,Inhibition: CTSL,human CTSL; [3],70.94% and 71.67% and 71.32%
same,inhibition at 0.3125 µM,"human CTSL; 312.5 nM, rep1-rep4",93.6%
same,Inhibition: CTSL,"human CTSL; 312.5 nM, rep1-rep4, 0.3125 µM",93.64% and 93.89% and 93.96%
same,inhibition at 0.625 µM,"human CTSL; 625 nM, rep1-rep4",99.2%
same,Inhibition: CTSL,"human CTSL; 625 nM, rep1-rep4, 0.625 µM",99.81% and 99.40% and 99.47%
same,inhibition at 1.25 µM,"human CTSL; 1250 nM, rep1-rep4",100%
same,Inhibition: CTSL,"human CTSL; 1250 nM, rep1-rep4, 1.25 µM",100.20% and 99.89%
same,inhibition at 2.5 µM,"human CTSL; 2500 nM, rep1-rep4",99.2%
same,Inhibition: CTSL,"human CTSL; 2500 nM, rep1-rep4, 2.5 µM",100.15% and 100.23% and 99.74%
same,inhibition at 5 µM,"human CTSL; 5000 nM, rep1-rep4",99.9%
same,Inhibition: CTSL,"human CTSL; 5000 nM, rep1-rep4, 5 µM",100.31% and 99.95%
same,inhibition at 10 µM,"human CTSL; 10000 nM, rep1-rep4",100%
same,Inhibition: CTSL,"human CTSL; 10000 nM, rep1-rep4, 10 µM",100.02% and 99.97%
same,IC50,human CTSL; [4],0.0889 µM
same,Cytotoxicity,Calu-3 cells; 0.017 μM,7.45% and 7.84% and 8.16%
same,Cytotoxicity,Calu-3 cells; 0.05 μM,11.45% and 12.03% and 11.72%
same,Cytotoxicity,Calu-3 cells; 0.15 μM,9.87% and 10.28% and 10.63%
same,Cytotoxicity,Calu-3 cells; 0.46 μM,7.15% and 7.70% and 8.12%
same,Cytotoxicity,Calu-3 cells; 4.1 μM,1.63% and 2.06% and 2.63%
same,Cytotoxicity,Calu-3 cells; 12.3 μM,-0.11% and 0.47% and 0.96%
same,Cytotoxicity,Calu-3 cells; 111.1 μM,-4.79% and -4.14% and -3.55%
same,Cytotoxicity,Calu-3 cells; 333.3 μM,12.34% and 13.88% and 14.55%
same,Cytotoxicity,Calu-3 cells; 1000 μM,23.12% and 23.57% and 24.06%
same,Inhibition: CTSB,human CTSB; [1],3.40% and 10.64% and 11.97% and 5.82%
same,Inhibition: CTSB,human CTSB; [2],-7.91% and 0.42% and 2.07% and 0.65%
same,inhibition at 0.15625 µM,"human CTSB; 156.25 nM, rep1-rep4",35.3%
same,Inhibition: CTSB,human CTSB; [3],44.31% and 44.26% and 38.99%
same,inhibition at 0.3125 µM,"human CTSB; 312.5 nM, rep1-rep4",56.2%
same,Inhibition: CTSB,"human CTSB; 312.5 nM, rep1-rep4, 0.3125 µM",62.85% and 55.87% and 62.55%
same,inhibition at 0.625 µM,"human CTSB; 625 nM, rep1-rep4",80.1%
same,Inhibition: CTSB,"human CTSB; 625 nM, rep1-rep4, 0.625 µM",80.11% and 80.88% and 83.45%
same,inhibition at 1.25 µM,"human CTSB; 1250 nM, rep1-rep4",98.7%
same,Inhibition: CTSB,"human CTSB; 1250 nM, rep1-rep4, 1.25 µM",92.94% and 89.91% and 97.77%
same,inhibition at 2.5 µM,"human CTSB; 2500 nM, rep1-rep4",95.4%
same,Inhibition: CTSB,"human CTSB; 2500 nM, rep1-rep4, 2.5 µM",107.12% and 95.70% and 101.34%
same,inhibition at 5 µM,"human CTSB; 5000 nM, rep1-rep4",105%
same,Inhibition: CTSB,"human CTSB; 5000 nM, rep1-rep4, 5 µM",104.22% and 97.92% and 95.52%
same,inhibition at 10 µM,"human CTSB; 10000 nM, rep1-rep4",97.9%
same,Inhibition: CTSB,"human CTSB; 10000 nM, rep1-rep4, 10 µM",102.20% and 95.59% and 101.48%
same,IC50,human CTSB; [4],0.244 µM
same,CC50,in vitro,> 1000 µM
